Key:
Test in all cases: relative viability (nuclei count vs DMSO), 5 days (fraction); higher = more cells survive
[1] = compound: CC1=C(C(=O)N2C=CSC2=N1)CCN3CCC(=C(C4=CC=CC=C4)C5=CC=C(C=C5)F)CC3 + CS(=O)(=O)N1CCN(Cc2cc3nc(-c4cccc5[nH]ncc45)nc(N4CCOCC4)c3s2)CC1 [Pictilisib] (partner 1 µM)
How it was run: (§1)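 After 5 days of treatment, lung cancer cells in 1536-well plates were fixed and stained in a single step (final 0.05% Triton X-100, 1% formaldehyde, 1 ug/ml Hoechst) and their nuclei counted on 4× images. Treatment had been applied by pin tool the day after seeding as one drug alone or as a fixed anchor-drug dose with five library-drug doses (not always all listed) in √10 steps. Relative viability is the nuclei count of treated wells divided by that of vehicle wells, and values are medians of duplicate plates.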

[2] = compound: CC1=C(C(=O)N2C=CSC2=N1)CCN3CCC(=C(C4=CC=CC=C4)C5=CC=C(C=C5)F)CC3 + CC(=O)c1c(C)c2cnc(Nc3ccc(N4CCNCC4)cn3)nc2n(C2CCCC2)c1=O [Palbociclib] (partner 0.5 µM)
How it was run: as §1

[3] = compound: CC1=C(C(=O)N2C=CSC2=N1)CCN3CCC(=C(C4=CC=CC=C4)C5=CC=C(C=C5)F)CC3 + N=C(N)NC(=N)NCCc1ccccc1 [Phenformin] (partner 250 µM)
How it was run: as §1

[4] = compound: CC1=C(C(=O)N2C=CSC2=N1)CCN3CCC(=C(C4=CC=CC=C4)C5=CC=C(C=C5)F)CC3 + Nc1ncn([C@H]2C[C@H](O)[C@@H](CO)O2)c(=O)n1 [Decitabine] (partner 2 µM)
How it was run: as §1

| Cell Line | relative viability ([1]; first compound 0.253 µM) | relative viability ([1]; first compound 0.8 µM) | relative viability ([1]; first compound 2.53 µM) | relative viability ([1]; first compound 8 µM) | relative viability ([2]; first compound 0.08 µM) | relative viability ([2]; first compound 0.253 µM) | relative viability ([2]; first compound 0.8 µM) | relative viability ([2]; first compound 2.53 µM) | relative viability ([2]; first compound 8 µM) | relative viability ([3]; first compound 0.08 µM) | relative viability ([3]; first compound 0.253 µM) | relative viability ([3]; first compound 0.8 µM) | relative viability ([3]; first compound 2.53 µM) | relative viability ([3]; first compound 8 µM) | relative viability ([4]; first compound 0.08 µM) | relative viability ([4]; first compound 0.253 µM) | relative viability ([4]; first compound 0.8 µM) | relative viability ([4]; first compound 2.53 µM) | relative viability ([4]; first compound 8 µM) | relative viability ([1]; first compound 0.08 µM) |
| --- | --- | --- | --- | --- | --- | --- | --- | --- | --- | --- | --- | --- | --- | --- | --- | --- | --- | --- | --- | --- |
| NCI-H1437 | 0.446 | 0.388 | 0.406 | 0.485 | 0.297 | 0.317 | 0.325 | 0.323 | 0.257 | 0.303 | 0.362 | 0.334 | 0.288 | 0.308 | 0.568 | 0.62 | 0.616 | 0.613 | 0.39 | – |
| NCI-H2085 | 0.462 | 0.45 | 0.442 | 0.409 | 0.498 | 0.506 | 0.474 | 0.533 | 0.469 | 0.769 | 0.699 | 0.661 | 0.762 | 0.591 | 0.553 | 0.563 | 0.504 | 0.573 | 0.559 | 0.449 |
| RERF-LC-KJ | 0.495 | 0.511 | 0.497 | 0.487 | 1.18 | 1.04 | 0.97 | 0.991 | 0.637 | 0.345 | 0.427 | 0.414 | 0.534 | 0.289 | 0.715 | 0.746 | 0.647 | 0.62 | 0.572 | 0.627 |
| LOU-NH91 | 0.503 | 0.545 | 0.55 | 0.527 | 0.501 | 0.59 | 0.543 | 0.547 | 0.536 | 0.72 | 0.676 | 0.689 | 0.673 | 0.597 | 0.796 | 0.832 | 0.834 | 0.926 | 0.792 | 0.561 |
| NCI-H322M | 0.526 | 0.524 | 0.526 | 0.496 | 0.552 | 0.492 | 0.479 | 0.504 | 0.524 | 0.745 | 0.785 | 0.737 | 0.773 | 0.873 | 0.719 | 0.781 | 0.688 | 0.814 | 0.767 | 0.513 |
| NCI-H1650 | 0.682 | 0.519 | 0.586 | 0.389 | 0.395 | 0.345 | 0.313 | 0.383 | 0.348 | 0.494 | 0.345 | 0.383 | 0.58 | 0.314 | 0.372 | 0.485 | 0.505 | 0.435 | 0.329 | 0.586 |
| NCI-H1734 | 0.468 | 0.485 | 0.504 | 0.331 | 0.367 | 0.342 | 0.324 | 0.318 | 0.378 | 0.419 | 0.378 | 0.371 | 0.405 | 0.322 | 0.481 | 0.469 | 0.507 | 0.504 | 0.496 | 0.476 |
| HOP-62 | 0.72 | 0.827 | 0.745 | 0.611 | 0.439 | 0.479 | 0.457 | 0.411 | 0.288 | 0.711 | 0.774 | 0.678 | 0.491 | 0.381 | 0.2 | 0.193 | 0.204 | 0.213 | 0.162 | 0.891 |
